# Experimental data: ChEMBL document CHEMBL4387774, “Design, synthesis, and evaluation of a water soluble C5-monoketone type curcumin analogue as a potent amyloid β aggregation inhibitor” (Bioorg Med Chem Lett, 2019)
# Calls of active or inactive are those of the source. The calls are words filed in the database; no cut-off is given here.
# Legend:
# [1] = Aqueous solubility of the compound at 1 mg measured after 12 hrs by shake flask method; format: physicochemical; settings: water
# [2] = target: Amyloid-beta precursor protein (Homo sapiens) (UniProt P05067); assay: Inhibition of self-induced amyloid beta 42 (unknown origin) aggregation at 10 uM incubated for 20 hrs by thioflavin-T fluorescence assay relative to control
# [3] = target: Amyloid-beta precursor protein (Homo sapiens) (UniProt P05067); assay: Inhibition of self-induced amyloid beta 42 (unknown origin) fibril formation at 10 uM incubated for 6 hrs by thioflavin-T fluorescence assay relative to control
# [4] = Cytotoxicity against rat PC12 cells measured after 24 hrs by WST8/PMS assay; format: cell-based, PC-12
# [5] = Antioxidant activity assessed as DPPH radical scavenging activity measured after 30 mins; format: functional
# [6] = target: Amyloid-beta precursor protein (Homo sapiens) (UniProt P05067); assay: Inhibition of self-induced amyloid beta 42 (unknown origin) aggregation at 1 uM incubated for 20 hrs by thioflavin-T fluorescence assay relative to control
# [7] = target: Amyloid-beta precursor protein (Homo sapiens) (UniProt P05067); assay: Disaggregation of self-induced amyloid beta 42 (unknown origin) preformed fibrils assessed as length of nanorod-like fragment by TEM analysis
# [8] = target: Amyloid-beta precursor protein (Homo sapiens) (UniProt P05067); assay: Disaggregation of self-induced amyloid beta 42 (unknown origin) preformed fibrils assessed as appearance of nanorod-like fragment by […] analysis
# Chain of Amyloid-beta precursor protein (Homo sapiens) (P05067 whole entry, the tested form may be a part): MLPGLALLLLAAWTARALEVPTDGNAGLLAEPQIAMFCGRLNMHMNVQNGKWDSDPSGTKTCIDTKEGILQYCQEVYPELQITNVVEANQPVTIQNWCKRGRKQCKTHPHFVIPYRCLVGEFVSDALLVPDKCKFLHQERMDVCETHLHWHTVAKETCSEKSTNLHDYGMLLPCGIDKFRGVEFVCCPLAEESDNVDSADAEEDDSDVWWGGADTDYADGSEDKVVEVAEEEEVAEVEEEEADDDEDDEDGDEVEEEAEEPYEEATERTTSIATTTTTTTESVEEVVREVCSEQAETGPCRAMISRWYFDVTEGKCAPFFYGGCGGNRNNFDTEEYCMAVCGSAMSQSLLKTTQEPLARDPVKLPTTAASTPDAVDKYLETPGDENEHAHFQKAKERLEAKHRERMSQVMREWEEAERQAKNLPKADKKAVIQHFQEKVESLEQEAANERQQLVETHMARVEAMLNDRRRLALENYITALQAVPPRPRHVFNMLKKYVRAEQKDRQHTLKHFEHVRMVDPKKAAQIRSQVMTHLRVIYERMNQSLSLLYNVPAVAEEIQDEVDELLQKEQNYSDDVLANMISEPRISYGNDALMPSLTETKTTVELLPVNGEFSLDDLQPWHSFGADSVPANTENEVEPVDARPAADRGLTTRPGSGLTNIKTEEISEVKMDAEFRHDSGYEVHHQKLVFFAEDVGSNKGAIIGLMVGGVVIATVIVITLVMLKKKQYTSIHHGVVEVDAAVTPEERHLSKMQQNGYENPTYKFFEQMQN
SMILES,solubility thermodynamic at 12 h [1],inhibition [2],inhibition [3],IC50 [5],inhibition [6],Activity [7],Activity [8],CC50 at 24 h [4]
O=C(/C=C/c1ccc(O)c(O)c1)/C=C/c1cc(O)ccc1O,123 µM,–,–,25 µM,100%,–,–,39 µM
O=C(/C=C/c1cccc(O)c1)/C=C/c1cccc(O)c1O,184 µM,–,–,48 µM,90%,–,–,46 µM
O=C(/C=C/c1ccc(O)c(O)c1)c1cc(O)ccc1O,16 µM,–,–,39 µM,85%,–,–,80 µM
O=C(/C=C/c1ccc(O)cc1)/C=C/c1cccc(O)c1O,120 µM,–,–,40 µM,96%,–,–,12 µM
O=C(/C=C/c1cccc(O)c1)/C=C/c1ccc(O)c(O)c1,60 µM,–,–,71 µM,100%,–,–,> 100 µM
COc1cc(/C=C/C(=O)CC(=O)/C=C/c2ccc(O)c(OC)c2)ccc1O [CURCUMIN],0.19 µM,–,–,45 µM,–,–,–,42 µM
O=C(/C=C/c1cc(O)ccc1O)CC(=O)c1ccc(O)c(O)c1,47 µM,–,–,82 µM,98%,–,–,> 100 µM
O=C(/C=C/c1cccc(O)c1)CC(=O)c1ccc(O)c(O)c1,25 µM,–,–,10 µM,85%,–,–,> 100 µM
O=C(/C=C/c1cccc(O)c1O)c1cc(O)ccc1O,33 µM,–,–,48 µM,98%,–,–,89 µM
O=C(/C=C/c1ccc(O)cc1)/C=C/c1ccc(O)c(O)c1,19 µM,–,–,24 µM,75%,–,–,12 µM
O=C(/C=C/c1ccc(O)c(O)c1)CC(=O)/C=C/c1cc(O)ccc1O,54 µM,–,95 to 100%,60 µM,57%,–,–,51 µM
O=C(/C=C/c1ccc(O)c(O)c1)/C=C/c1ccccc1O,111 µM,–,–,62 µM,100%,–,–,34 µM
O=C(/C=C/c1cc(O)ccc1O)CC(=O)c1cccc(O)c1O,32 µM,–,–,28 µM,100%,–,–,63 µM
O=C(/C=C/c1ccc(O)cc1)CC(=O)/C=C/c1cc(O)ccc1O,0.57 µM,–,95 to 100%,41 µM,53%,–,–,21 µM
O=C(/C=C(O)/C=C/c1ccccc1O)/C=C/c1ccc(O)c(O)c1,31 µM,–,–,–,62%,–,–,–

# Now from value to compound, other results behind:
solubility thermodynamic at 12 h [1],inhibition [2],inhibition [3],IC50 [5],inhibition [6],Activity [7],Activity [8],SMILES,CC50 at 24 h [4]
3.8 µM,98%,95 to 100%,19 µM,–,–,–,O=C(/C=C/c1ccc(O)c(O)c1)CC(=O)/C=C/c1cccc(O)c1O,16 µM
5.8 µM,–,95 to 100%,88 µM,56%,–,–,O=C(/C=C/c1cccc(O)c1)CC(=O)/C=C/c1cc(O)ccc1O,15 µM
11 µM,–,95 to 100%,23 µM,92%,–,–,O=C(/C=C/c1ccccc1O)CC(=O)/C=C/c1cccc(O)c1O,34 µM
151 µM,–,–,99 µM,98%,–,–,O=C(/C=C/c1ccccc1O)/C=C/c1cccc(O)c1O,54 µM
5.3 µM,–,95 to 100%,30 µM,93%,–,–,O=C(/C=C/c1cccc(O)c1O)CC(=O)/C=C/c1cccc(O)c1O,39 µM
77 µM,–,–,16 µM,90%,–,–,O=C(/C=C/c1ccccc1O)CC(=O)c1ccc(O)c(O)c1,> 90 µM
8.2 µM,100%,95 to 100%,29 µM,–,–,–,O=C(/C=C/c1cccc(O)c1)CC(=O)/C=C/c1cccc(O)c1O,38 µM
4.8 µM,100%,95 to 100%,27 µM,–,–,–,O=C(/C=C/c1ccc(O)cc1)CC(=O)/C=C/c1cccc(O)c1O,8.5 µM
4.4 µM,–,95 to 100%,48 µM,80%,–,–,O=C(/C=C/c1ccccc1O)CC(=O)/C=C/c1cc(O)ccc1O,38 µM
100 µM,–,95 to 100%,27 µM,100%,–,–,O=C(/C=C/c1cc(O)ccc1O)CC(=O)/C=C/c1cccc(O)c1O,53 µM
271 µM,–,–,13 µM,100%,50 to 500 nm,Active,O=C(/C=C/c1cc(O)ccc1O)/C=C/c1cccc(O)c1O,59 µM
5 µM,–,95 to 100%,57 µM,99%,–,–,O=C(/C=C/c1cc(O)ccc1O)CC(=O)/C=C/c1cc(O)ccc1O,24 µM
